Results published in US20080293683A1, “Hormone Replacement Therapy” (University of Kansas Medical Center, priority 2007, published 2008).
Where two headings read alike, the source gives them in different places.

Legend:
postmenopausal person = details: singular use; cited from earlier work
recombinant human ERβ = target: T1, recombinant human ERβ (Homo sapiens, UniProt Q92731); experiment: ERβ binding assay: competition of [3H]E2 binding by competing estrogens; details: for RBAβ (%) (relative binding affinity for ERβ, of E2): calculated against E2 = 100
T1 construct: purchased PanVera Corporation (Madison, Wis.); host or cells: baculovirus-mediated expression system
Source text: (§1) The recombinant human ERα and ERβ proteins and bovine serum albumin (BSA) were obtained from PanVera Corporation (Madison, Wis.). According to the supplier, the recombinant human ERα and ERβ were produced in a baculovirus-mediated expression system, and they were soluble and functionally active, with post-translational modifications similar to those found in mammalian cells. See Reid et al., Human estrogen receptor-α: Regulation by synthesis, modification and degradation, Cell. Mol. Life.
(§2) The following buffer solutions were used in the ER binding assays, and they were prepared beforehand and stored at 4° C. The binding buffer consisted of 10% glycerol, 2 mM dithiothreitol, 1 mg/mL BSA and 10 mM Tris-HCl at pH 7.5. The ERα washing buffer contained 40 mM Tris-HCl and 100 mM KCl (pH 7.4), but the ERG washing buffer contained only 40 mM Tris-HCl (adjusted to pH 7.4). The 50% hydroxylapatite slurry was prepared first by vigorously mixing 10 g hydroxylapatite with 60 mL of the Tris-HCl solution (50 mM, pH 7.4). Hydroxylapatite was then allowed to settle for 20 minutes at room temperature, and the supernatant was decanted. The above procedures were repeated 10 times, and afterwards hydroxylapatite was kept in the 50 mM Tris-HCl solution overnight at 4° C. Hydroxylapatite slurry was then adjusted to an approximate final concentration of 50% (v/v) using the same Tris-HCl solution and stored at 4° C., and the slurry was stable for up to several months.
(§3) Note that all of the estrogens were initially dissolved in pure ethanol to a stock concentration of 1 mM, and then further diluted to 100 μM with 20% aqueous ethanol. […] Immediately before the addition of the ERα or ERβ protein, it was diluted in the binding buffer and mixed gently with repetitive pipettings. […] The incubation mixture was then mixed gently and thoroughly with repetitive pipettings. […] The binding mixture was incubated at room temperature for two hours. At the end of the incubation, 100 μL of the hydroxylapatite slurry was added to each tube and the tubes were incubated on ice for 15 minutes with 3 times of brief vortexing. An aliquot (1 mL) of the appropriate washing buffer was added, mixed, and centrifuged at 10,000 g for five minutes, and the supernatants were discarded. This wash step was repeated twice. Hydroxylapatite pellets were then resuspended in 200 μL ethanol (followed by another rinse with 200 μL ethanol), and then the content was transferred to scintillation vials (containing 4 mL of the scintillation fluid) for measurement of ^3H-radioactivity with a liquid scintillation counter (Packard Tri-CARB 2900 TR; Downers Grove, Ill.).
(§4) To calculate the specific binding (pmol/mL) of the human ERα or ERβ protein at each concentration point, the following equation was used: […]
(§5) When a lower radioligand concentration is used, the corresponding IC50 value will also be relatively lower, but when the radioligand concentration increases, the corresponding IC50 value will also increase. […] Since the RBA value is a parameter that is independent of the radioligand concentration used, we thus have placed more emphasis on the RBA values instead of the absolute IC50 values in interpreting the physiological meanings of the data from in vitro receptor competition assays.

recombinant human ERα = target: T2, recombinant human ERα (Homo sapiens, UniProt P03372); experiment: ERα binding assay: competition of [3H]E2 binding by competing estrogens; details: for RBAα % (relative binding affinity for ERα, of E2): calculated against E2 = 100; for RBAα/RBAβ: ratio of relative binding affinities ERα over ERβ
T2 construct: purchased PanVera Corporation (Madison, Wis.); host or cells: baculovirus-mediated expression system
T2 sequence (P03372 1-595): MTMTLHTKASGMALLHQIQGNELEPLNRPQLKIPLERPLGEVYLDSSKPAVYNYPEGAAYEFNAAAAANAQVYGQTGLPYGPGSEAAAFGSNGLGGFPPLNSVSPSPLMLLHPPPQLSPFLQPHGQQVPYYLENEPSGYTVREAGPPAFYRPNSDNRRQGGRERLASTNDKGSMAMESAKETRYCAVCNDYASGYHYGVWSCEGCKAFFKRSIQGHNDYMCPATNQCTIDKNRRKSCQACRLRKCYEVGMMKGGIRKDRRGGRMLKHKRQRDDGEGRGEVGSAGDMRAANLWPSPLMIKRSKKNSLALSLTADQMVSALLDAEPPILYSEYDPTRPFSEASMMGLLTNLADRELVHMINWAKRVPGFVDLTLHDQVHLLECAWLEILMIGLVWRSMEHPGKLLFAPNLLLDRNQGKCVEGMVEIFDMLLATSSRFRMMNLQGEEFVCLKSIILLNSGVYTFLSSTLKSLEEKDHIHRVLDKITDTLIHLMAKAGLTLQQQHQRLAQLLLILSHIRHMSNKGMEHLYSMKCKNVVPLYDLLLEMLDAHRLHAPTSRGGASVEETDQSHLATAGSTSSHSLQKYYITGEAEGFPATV
Source text: as §1, §2, §3, §4, §5

T1 sequence (Q92731 whole entry): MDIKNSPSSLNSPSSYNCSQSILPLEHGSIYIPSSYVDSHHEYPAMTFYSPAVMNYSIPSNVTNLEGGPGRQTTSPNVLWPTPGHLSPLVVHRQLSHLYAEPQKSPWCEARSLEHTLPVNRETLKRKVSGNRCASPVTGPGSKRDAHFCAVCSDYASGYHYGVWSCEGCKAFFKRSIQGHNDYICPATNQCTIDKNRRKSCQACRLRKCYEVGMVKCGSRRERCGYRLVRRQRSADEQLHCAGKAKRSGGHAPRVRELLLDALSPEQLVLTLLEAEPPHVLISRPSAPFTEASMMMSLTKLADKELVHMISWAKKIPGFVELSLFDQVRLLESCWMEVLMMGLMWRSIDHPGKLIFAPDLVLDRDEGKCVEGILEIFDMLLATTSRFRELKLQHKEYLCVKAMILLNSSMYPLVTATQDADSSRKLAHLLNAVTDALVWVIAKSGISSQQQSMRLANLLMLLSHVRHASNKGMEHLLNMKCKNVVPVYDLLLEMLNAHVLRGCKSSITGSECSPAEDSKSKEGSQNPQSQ

Compound	RBAβ (%) (relative binding affinity for ERβ, of E2) (recombinant human ERβ)	IC50 (recombinant human ERβ; read-out: ERβ IC50) [nM]	RBAα % (relative binding affinity for ERα, of E2) (recombinant human ERα) [%]	RBAα/RBAβ (recombinant human ERα)	IC50 (recombinant human ERα; read-out: ERα IC50) [nM]	also measured
O=c1c(-c2ccc(O)cc2)coc2cc(O)cc(O)c12 [Genistein]	–	–	–	–	–	effectiveness as hormone replacement therapy (postmenopausal person): ineffective
COc1cc2c(cc1O)CC[C@@H]1[C@@H]2CC[C@]2(C)C(=O)CC[C@@H]12 [2-MeO-E1, 2-Methoxyestrone]	–	–	–	–	–	IC50 (recombinant human ERβ; [3H]E2 10 nM, competitor up to 1000 nM, read-out: ERβ IC50): > 1000 nM; binding affinity for ERβ (in words) (recombinant human ERβ; concentrations up to 1000 nM): did not have appreciable binding affinity; IC50 (recombinant human ERα; [3H]E2 10 nM, competitor up to 1000 nM, read-out: ERα IC50): > 1000 nM; binding affinity for ERα (in words) (recombinant human ERα; concentrations up to 1000 nM): did not have appreciable binding affinity; RBAα/RBAβ determined by extrapolating the curves (recombinant human ERα; extrapolated from curves of FIGS. 3-7, IC50 not reached): about 1
C[C@]12CC[C@@H]3c4ccc(O)c(O)c4CC[C@H]3[C@@H]1CC[C@@H]2O [4-OH-E2, 4-Hydroxyestradiol]	56	15.9	70	1.3	15.9	RBAα/RBAβ (recombinant human ERα; listed as 4-hydroxyestradiol): about 1.3
C[C@]12CC[C@@H]3c4ccc(O)cc4[C@@H](O)C[C@H]3[C@@H]1CC[C@@H]2O [6α-OH-E2, 6α-Hydroxyestradiol]	4	251	6	1.5	200	RBAα/RBAβ (recombinant human ERα; listed as 6α-hydroxyestradiol): about 1.5
CC12CCCC1C1CCc3cc(O)ccc3C1CC2 (centres unmarked) [17-Desoxy-E2, 17-Desoxyestradiol]	45	19.9	16	0.4	70.8	–
CC12CC(O)C3c4ccc(O)cc4CCC3C1CCC2O (stereo not drawn) [11β-OH-E2, 11β-Hydroxyestradiol]	–	> 1000	–	–	> 1000	–
C[C@]12CC[C@@H]3c4ccc(O)cc4CC[C@H]3[C@@H]1C[C@@H](O)C2=O [16α-OH-E1, 16α-Hydroxyestrone]	35	–	–	0.1	–	IC50 (recombinant human ERβ): 25.1 nM; binding affinity for ERβ, fold higher than E1 (recombinant human ERβ; relative to E1): 18 fold; IC50 (recombinant human ERα): 56.2 nM; binding affinity for ERα (in words) (recombinant human ERα): twice as high as that of E1
C[C@]12CC[C@@H]3c4ccc(O)cc4[C@H](O)C[C@H]3[C@@H]1CC[C@@H]2O [6β-OH-E2, 6β-Hydroxyestradiol]	2	562	1	0.5	794	–
CC12CCC3c4cc(O)c(O)cc4CCC3C1CCC2=O (centres unmarked) [2-OH-E1, 2-Hydroxyestrone]	0.4	2000	4	10	316	preference of binding affinity for ERα over ERβ (recombinant human ERα; ERα over ERβ): about ten-fold; RBAα/RBAβ (recombinant human ERα; listed as 2-hydroxyestrone): about 10
C[C@]12CC[C@@H]3c4cc(O)c(O)cc4CC[C@H]3[C@@H]1CC[C@@H]2O [2-OH-E2, 2-Hydroxyestradiol]	35	–	22	0.6	–	IC50 (recombinant human ERβ): 25.1 nM; IC50 (recombinant human ERα): 50.1 nM
COc1c(O)ccc2c1CC[C@@H]1[C@@H]2CC[C@]2(C)[C@@H](O)[C@H](O)C[C@@H]12 [4-MeO-E3, 4-Methoxyestriol]	1	631	1	1	1260	–
CC12CCC3c4ccc(O)c(O)c4CCC3C1CCC2=O (centres unmarked) [4-OH-E1, 4-Hydroxyestrone]	1	708	2	2	708	RBAα/RBAβ (recombinant human ERα; listed as 4-hydroxyestrone): about 2
C[C@]12CC[C@@H]3c4ccc(O)cc4CC[C@H]3[C@@H]1CC(=O)[C@@H]2O [16-Keto-E2, 16-Ketoestradiol]	18	50.1	1	0.1	112	–
COc1cc2c(cc1OC)[C@H]1CC[C@]3(C)C(=O)CC[C@H]3[C@@H]1CC2 [2,3-diMeO-E1, Estrone 2,3-dimethyl ether]	–	> 1000	–	–	> 1000	–
COc1cc2c(cc1OC)C1CCC3(C)C(O)CCC3C1CC2 (stereo not drawn) [2,3-diMeO-E2, 17β-Estradiol 2,3-dimethyl ether]	–	> 1000	–	–	> 1000	–
